ChEMBL document CHEMBL1201862, “PubChem BioAssay data set” (2004)
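Five concentrations, 48 hours, 96-well plates. GI50 is the concentration that inhibits growth by half.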 The source made the active and inactive calls. Cut-off read from the data, not from the text of the source: active = GI50 up to about 1.1 µM and inactive = higher.

Tests used:
Assay in all cases: inhibition of tumour cell growth, NCI panel, 48 h
[1] = system: BT-549
[2] = system: OVCAR-3
[3] = system: DU-145
[4] = system: HCT-15
[5] = system: ACHN
[6] = system: MCF7
[7] = system: IGROV-1
[8] = system: SR
[9] = system: UACC-257
[10] = system: U-251
[11] = system: SF-268
[12] = system: A498
[13] = system: CAKI-1
[14] = system: MOLT-4
[15] = system: OVCAR-4
[16] = system: SK-OV-3
[17] = system: MDA-MB-435
[18] = system: LOX IMVI
[19] = system: HT-29
[20] = system: PC-3
[21] = system: TK-10
[22] = system: CCRF-CEM
[23] = system: NCI-H460
[24] = system: SNB-75
[25] = system: MDA-N
[26] = system: MDA-MB-231
[27] = system: SF-539
[28] = system: COLO 205
[29] = system: SK-MEL-5
[30] = system: HCT-116
[31] = system: NCI-H23
[32] = system: T47D
[33] = system: SN12C
[34] = system: UO-31
[35] = system: 786-0
[36] = system: K562
[37] = system: RXF 393
[38] = system: M14
[39] = system: SW-620
[40] = system: HOP-92
[41] = system: UACC-62
[42] = system: HL-60
[43] = system: KM12
[44] = system: NCI-H226
[45] = system: SF-295
[46] = system: A549
[47] = system: RPMI-8226
[48] = system: NCI/ADR-RES
[49] = system: OVCAR-5
[50] = system: HOP-62
[51] = system: SK-MEL-2
[52] = system: NCI-H522
[53] = system: SNB-19
[54] = system: EKVX
[55] = system: OVCAR-8
[56] = system: SK-MEL-28
[57] = system: Malme-3M
[58] = system: HCC 2998
[59] = system: Hs-578T

## Cc1c2cccc(Sc3ccccc3)c2c2c3c(cccc13)[S+](c1ccccc1)C2 (configuration not stated)
[1]
  GI50: 2.14 µM (inactive)
[2]
  GI50: 0.659 µM (active)
[3]
  GI50: 3.78 µM (inactive)
[4]
  GI50: 10.4 µM
[5]
  GI50: 4.04 µM (inactive)
[6]
  GI50: 1.33 µM (inactive)
[7]
  GI50: 2.34 µM (inactive)
[8]
  GI50: 0.838 µM (active)
[9]
  GI50: 0.594 µM (active)
[10]
  GI50: 1.5 µM (inactive)
[11]
  GI50: 3.13 µM (inactive)
[12]
  GI50: 2.65 µM (inactive)
[13]
  GI50: 3.19 µM (inactive)
[14]
  GI50: 1.65 µM (inactive)
[15]
  GI50: 1.98 µM (inactive)
[16]
  GI50: 1.84 µM (inactive)
[17]
  GI50: 1.75 µM (inactive)
[18]
  GI50: 1.72 µM (inactive)
[19]
  GI50: 1.47 µM (inactive)
[20]
  GI50: 2.06 µM (inactive)
[21]
  GI50: 2.67 µM (inactive)
[22]
  GI50: 1.77 µM (inactive)
[23]
  GI50: 1.58 µM (inactive)
[24]
  GI50: 1.94 µM (inactive)
[25]
  GI50: 2.28 µM (inactive)
[26]
  GI50: 2.16 µM (inactive)
[27]
  GI50: 2.63 µM (inactive)
[28]
  GI50: 0.923 µM (active)
[29]
  GI50: 0.748 µM (active)
[30]
  GI50: 2.06 µM (inactive)
[31]
  GI50: 1.82 µM (inactive)
[32]
  GI50: 0.526 µM (active)
[33]
  GI50: 2.24 µM (inactive)
[34]
  GI50: 2.95 µM (inactive)
[35]
  GI50: 2.98 µM (inactive)
[36]
  GI50: 0.408 µM (active)
[37]
  GI50: 3.86 µM (inactive)
[38]
  GI50: 2.08 µM (inactive)
[39]
  GI50: 3.26 µM (inactive)
[40]
  GI50: 2.03 µM (inactive)
[41]
  GI50: 1.66 µM (inactive)
[42]
  GI50: 0.935 µM (active)
[43]
  GI50: 1.16 µM (inactive)
[44]
  GI50: 2.33 µM (inactive)
[45]
  GI50: 1.78 µM (inactive)
[46]
  GI50: 2.88 µM (inactive)
[47]
  GI50: 0.221 µM (active)
[48]
  GI50: 28.6 µM (inactive)
[49]
  GI50: 3.03 µM (inactive)
[50]
  GI50: 1.89 µM (inactive)
[51]
  GI50: 1.5 µM (inactive)
[52]
  GI50: 0.684 µM (active)
[53]
  GI50: 1.73 µM (inactive)
[54]
  GI50: 2.71 µM (inactive)
[55]
  GI50: 2.67 µM (inactive)
[56]
  GI50: 2.58 µM (inactive)
[57]
  GI50: 1.8 µM (inactive)
[58]
  GI50: 1.66 µM (inactive)
[59]
  GI50: 2.74 µM (inactive)

## COC(C)(C)[C@@H](O)[C@H]1C[C@H](C)[C@@]2(CC[C@]3(C)[C@@H]2CC[C@@H]2[C@@]4(C)CC[C@@H](OC(C)=O)C(C)(C)[C@@H]4C[C@@H](OC4OC(COC(C)=O)C(O)C(O)C4O)[C@]23C)O1 (some centres not stated)
[1]
  GI50: 4.86 µM (inactive)
[2]
  GI50: 4.26 µM (inactive)
[3]
  GI50: 4.37 µM (inactive)
[4]
  GI50: 2.39 µM
[5]
  GI50: 5.86 µM (inactive)
[6]
  GI50: 2.86 µM (inactive)
[7]
  GI50: 4.39 µM (inactive)
[8]
  GI50: 2.52 µM (inactive)
[9]
  GI50: 6.44 µM (inactive)
[10]
  GI50: 5.7 µM (inactive)
[11]
  GI50: 4.98 µM (inactive)
[12]
  GI50: 6.41 µM (inactive)
[13]
  GI50: 8.43 µM (inactive)
[14]
  GI50: 2.32 µM (inactive)
[15]
  GI50: 3.48 µM (inactive)
[16]
  GI50: 4.7 µM (inactive)
[17]
  GI50: 3.29 µM (inactive)
[18]
  GI50: 3.9 µM (inactive)
[19]
  GI50: 1.89 µM (inactive)
[20]
  GI50: 2.63 µM (inactive)
[21]
  GI50: 12.2 µM (inactive)
[22]
  GI50: 3.3 µM (inactive)
[23]
  GI50: 4.37 µM (inactive)
[24]
  GI50: 4.46 µM (inactive)
[25]
  GI50: 5.43 µM (inactive)
[26]
  GI50: 8.83 µM (inactive)
[27]
  GI50: 10.1 µM (inactive)
[28]
  GI50: 2.38 µM (inactive)
[29]
  GI50: 6.53 µM (inactive)
[30]
  GI50: 3.25 µM (inactive)
[31]
  GI50: 10.2 µM (inactive)
[32]
  GI50: 4.14 µM (inactive)
[33]
  GI50: 6.43 µM (inactive)
[34]
  GI50: 4.67 µM (inactive)
[35]
  GI50: 5.86 µM (inactive)
[36]
  GI50: 3.79 µM (inactive)
[37]
  GI50: 4.1 µM (inactive)
[38]
  GI50: 4.8 µM (inactive)
[39]
  GI50: 6.81 µM (inactive)
[40]
  GI50: 4.8 µM (inactive)
[41]
  GI50: 4.93 µM (inactive)
[42]
  GI50: 2.1 µM (inactive)
[43]
  GI50: 1.79 µM (inactive)
[44]
  GI50: 4.75 µM (inactive)
[45]
  GI50: 4.51 µM (inactive)
[46]
  GI50: 4.01 µM (inactive)
[47]
  GI50: 2.42 µM (inactive)
[48]
  GI50: 7.43 µM (inactive)
[49]
  GI50: 2.54 µM (inactive)
[50]
  GI50: 12.3 µM (inactive)
[51]
  GI50: 4.75 µM (inactive)
[52]
  GI50: 4.04 µM (inactive)
[53]
  GI50: 8.73 µM (inactive)
[54]
  GI50: 5.74 µM (inactive)
[55]
  GI50: 5.33 µM (inactive)
[56]
  GI50: 7.57 µM (inactive)
[57]
  GI50: 10.5 µM (inactive)
[58]
  GI50: 0.662 µM (active)
[59]
  GI50: 6.76 µM (inactive)

## O=S(=O)(CC(Cl)c1ccccc1)c1nc2ccccc2s1 (configuration not stated)
[1]
  GI50: 2.98 µM (inactive)
[2]
  GI50: 8.53 µM (inactive)
[3]
  GI50: 16.5 µM (inactive)
[4]
  GI50: 8.02 µM
[5]
  GI50: 15.5 µM (inactive)
[6]
  GI50: 7.48 µM (inactive)
[7]
  GI50: 9.12 µM (inactive)
[8]
  GI50: 1.67 µM (inactive)
[9]
  GI50: 7.8 µM (inactive)
[10]
  GI50: 12.5 µM (inactive)
[11]
  GI50: 13.6 µM (inactive)
[12]
  GI50: 20 µM (inactive)
[13]
  GI50: 2.24 µM (inactive)
[14]
  GI50: 2.81 µM (inactive)
[15]
  GI50: 19.8 µM (inactive)
[16]
  GI50: 18.7 µM (inactive)
[17]
  GI50: 7.71 µM (inactive)
[18]
  GI50: 1.5 µM (inactive)
[19]
  GI50: 5.42 µM (inactive)
[20]
  GI50: 16 µM (inactive)
[21]
  GI50: 19.5 µM (inactive)
[22]
  GI50: 1.7 µM (inactive)
[23]
  GI50: 19.7 µM (inactive)
[24]
  GI50: 14.5 µM (inactive)
[25]
  GI50: 6.22 µM (inactive)
[26]
  GI50: 14.1 µM (inactive)
[27]
  GI50: 10.2 µM (inactive)
[28]
  GI50: 7.93 µM (inactive)
[29]
  GI50: 4.01 µM (inactive)
[30]
  GI50: 9.86 µM (inactive)
[31]
  GI50: 8.38 µM (inactive)
[32]
  GI50: 13.2 µM (inactive)
[33]
  GI50: 10.2 µM (inactive)
[34]
  GI50: 15.4 µM (inactive)
[35]
  GI50: 6.95 µM (inactive)
[36]
  GI50: 2.81 µM (inactive)
[37]
  GI50: 15 µM (inactive)
[38]
  GI50: 2.29 µM (inactive)
[39]
  GI50: 5.2 µM (inactive)
[40]
  GI50: 2.88 µM (inactive)
[41]
  GI50: 15.1 µM (inactive)
[42]
  GI50: 2.11 µM (inactive)
[43]
  GI50: 17.2 µM (inactive)
[44]
  GI50: 8.11 µM (inactive)
[45]
  GI50: 17.9 µM (inactive)
[46]
  GI50: 19.5 µM (inactive)
[47]
  GI50: 3.35 µM (inactive)
[48]
  GI50: 10.7 µM (inactive)
[49]
  GI50: 13.7 µM (inactive)
[50]
  GI50: 23.1 µM (inactive)
[51]
  GI50: 17.8 µM (inactive)
[52]
  GI50: 1.85 µM (inactive)
[53]
  GI50: 17.8 µM (inactive)
[54]
  GI50: 15.8 µM (inactive)
[55]
  GI50: 7.96 µM (inactive)
[56]
  GI50: 15.7 µM (inactive)
[57]
  GI50: 9.16 µM (inactive)
[58]
  GI50: 17.5 µM (inactive)
[59]
  GI50: 27.6 µM (inactive)
